# Measurements taken from patent US10533010B2, “Substituted indole Mcl-1 inhibitors” (Vanderbilt University, priority 2014, dated 2020).
# Target: recombinant Mcl-1 (residues 172-327) (Homo sapiens (Human), UniProt Q07820)
# Experiment: Fluorescence polarization anisotropy competition assay (FITC-Bak or FITC-Bim BH3 peptide) with Mcl-1
# Type: binding
# Details: Table 2; Ki bins given in nM; FITC-Bak or FITC-Bim peptide competition; Ki converted from IC50; read-out: Ki for Inhibition of Mcl-1
# Sequence of recombinant Mcl-1 (residues 172-327) (Q07820 172-327): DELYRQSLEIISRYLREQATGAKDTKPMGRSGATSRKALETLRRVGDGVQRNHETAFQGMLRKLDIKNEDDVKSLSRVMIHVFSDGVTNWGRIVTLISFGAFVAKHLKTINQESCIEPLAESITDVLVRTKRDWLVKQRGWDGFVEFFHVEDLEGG
row,Structure (SMILES),Ki [nM]
1,"Cc1cc(OCCCc2c(C(=O)NCc3ccc(C(=O)O)o3)[nH]c3c(-c4c(C)n[nH]c4C)cccc23)cc(C)c1Cl [I-62, 5-((3-(3-(4-chloro-3,5-dimethylphenoxy)propyl)-7-(3,5-dimethyl-1H-pyrazol-4-yl)-1H-indole-2-carboxamido)methyl)furan-2-carboxylic acid]",< 50
2,"Cc1nn(C)c(C)c1-c1cccc2c(CCCOc3cccc4ccccc34)c(C(=O)Nc3cncc(C(=O)O)c3)[nH]c12 [I-194, 5-(3-(3-(naphthalen-1-yloxy)propyl)-7-(1,3,5-trimethyl-1H-pyrazol-4-yl)-1H-indole-2-carboxamido)nicotinic acid]",51 to 100
3,"Cc1cc(OCCCc2c3n(c4c(-c5c(C)nn(CC(=O)O)c5C)c(Cl)ccc24)CCCNC3=O)cc(C)c1Cl [I-295, 2-(4-(8-chloro-11-(3-(4-chloro-3,5-dimethylphenoxy)propyl)-1-oxo-2,3,4,5-tetrahydro-1H-[1,4]diazepino[1,2-a]indol-7-yl)-3,5-dimethyl-1H-pyrazol-1-yl)acetic acid]",< 50
4,"Cc1cc(OCCCc2c(C(=O)NC3CCN(C(=O)C(=O)O)CC3)[nH]c3c(-c4c(C)nn(C)c4C)cccc23)cc(C)c1Cl [I-319, 2-(4-(3-(3-(4-chloro-3,5-dimethylphenoxy)propyl)-7-(1,3,5-trimethyl-1H-pyrazol-4-yl)-1H-indole-2-carboxamido)piperidin-1-yl)-2-oxoacetic acid]",< 50
5,"Cc1cc(OCCCc2c(C(=O)Nc3ccc(C(=O)O)c(N4CCOCC4)c3)[nH]c3c(-c4c(C)nn(C)c4C)c(Cl)ccc23)cc(C)c1Cl [I-91, 4-(6-chloro-3-(3-(4-chloro-3,5-dimethylphenoxy)propyl)-7-(1,3,5-trimethyl-1H-pyrazol-4-yl)-1H-indole-2-carboxamido)-2-morpholinobenzoic acid]",< 50
6,"Cc1cc(OCCCc2c3n(c4c(-c5c(C)nn(C)c5C)cccc24)CCN(Cc2cccc(-c4nnn[nH]4)c2)C3=O)cc(C)c1Cl [I-85, 2-(3-(1H-tetrazol-5-yl)benzyl)-10-(3-(4-chloro-3,5-dimethylphenoxy)propyl)-6-(1,3,5-trimethyl-1H-pyrazol-4-yl)-3,4-dihydropyrazino[1,2-a]indol-1(2H)-one]",< 50
7,"Cc1cc(OCCCc2c(C(=O)NCc3ccc(N4CCCCC4)c(C(=O)O)c3)[nH]c3c(-c4c(C)nn(C)c4C)cccc23)cc(C)c1Cl [I-73, 5-((3-(3-(4-chloro-3,5-dimethylphenoxy)propyl)-7-(1,3,5-trimethyl-1H-pyrazol-4-yl)-1H-indole-2-carboxamido)methyl)-2-(piperidin-1-yl)benzoic acid]",301 to 500
8,"Cc1cc(OCCCc2c(C(=O)NCCC(=O)NS(=O)(=O)c3cccc([N+](=O)[O-])c3)[nH]c3ccccc23)cc(C)c1Cl [I-21, 3-(3-(4-chloro-3,5-dimethylphenoxy)propyl)-N-(3-((3-nitrophenyl)sulfonamido)-3-oxopropyl)-1H-indole-2-carboxamide]",101 to 299
9,"Cc1cc(OCCCc2c3n(c4c(-c5c(C)nn(C)c5C)c(Cl)ccc24)CCCN(CCc2ccccc2C(=O)O)C3=O)cc(C)c1Cl [I-294, 2-(2-(8-chloro-11-(3-(4-chloro-3,5-dimethylphenoxy)propyl)-1-oxo-7-(1,3,5-trimethyl-1H-pyrazol-4-yl)-4,5-dihydro-1H-[1,4]diazepino[1,2-a]indol-2(3H)-yl)ethyl)benzoic acid]",< 50
10,"Cc1cc(OCCCc2c(C(=O)NC3CCN(C(=O)c4cccc(Oc5ccccc5)c4)CC3)[nH]c3ccccc23)cc(C)c1Cl [I-67, 3-(3-(4-chloro-3,5-dimethylphenoxy)propyl)-N-(1-(3-phenoxybenzoyl)piperidin-4-yl)-1H-indole-2-carboxamide]",501 to 999

# Next, values leading:
row,Ki [nM],Structure (SMILES)
1,< 50,"Cc1cc(OCCCc2c3n(c4c(-c5c(C)nn(C)c5C)c(Cl)ccc24)CCCN(c2cccc(-c4nn[nH]n4)c2)C3=O)cc(C)c1Cl [I-354, 2-(3-(2H-tetrazol-5-yl)phenyl)-8-chloro-1-(3-(4-chloro-3,5-dimethylphenoxy)propyl)-7-(1,3,5-trimethyl-1H-pyrazol-4-yl)-2,3,4,5-tetrahydro-1H-[1,4]diazepino[1,2-a]indol-1-one]"
2,< 50,"Cc1cc(OCCCc2c3n(c4c(-c5c(C)nn(C)c5C)c(Cl)ccc24)CCCN(c2cc(C(=O)O)c4ccn(CCN(C)C)c4c2)C3=O)cc(C)c1Cl [I-243, 6-(8-chloro-11-(3-(4-chloro-3,5-dimethylphenoxy)propyl)-1-oxo-7-(1,3,5-trimethyl-1H-pyrazol-4-yl)-4,5-dihydro-1H-[1,4]diazepino[1,2-a]indol-2(3H)-yl)-1-(2-(dimethylamino)ethyl)-1H-indole-4-carboxylic acid]"
3,< 50,"Cc1cc(OCCCc2c3n(c4c(-c5c(C)nn(C)c5C)c(Cl)ccc24)CC(C)CNC3=O)cc(C)c1Cl (stereo not shown) [I-115, 8-chloro-1-(3-(4-chloro-3,5-dimethylphenoxy)propyl)-4-methyl-7-(1,3,5-trimethyl-1H-pyrazol-4-yl)-2,3,4,5-tetrahydro-1H-[1,4]diazepino[1,2-a]indol-1-one]"
4,< 50,"Cc1cc(OCCCc2c3n(c4c(-c5c(C)nn(C)c5C)c(Cl)ccc24)CCNC3=O)cc(C)c1Cl [I-117, 7-chloro-10-(3-(4-chloro-3,5-dimethylphenoxy)propyl)-6-(1,3,5-trimethyl-1H-pyrazol-4-yl)-3,4-dihydropyrazino[1,2-a]indol-1(2H)-one]"
5,< 50,"Cc1cc(OCCCc2c(C(=O)N(C)c3cccc(C(=O)O)c3)[nH]c3c(-c4c(C)nn(C)c4C)cccc23)cc(C)c1Cl [I-197, 3-(3-(3-(4-chloro-3,5-dimethylphenoxy)propyl)-N-methyl-7-(1,3,5-trimethyl-1H-pyrazol-4-yl)-1H-indole-2-carboxamido)benzoic acid]"
6,< 50,"Cc1cc(OCCCc2c3n(c4c(-c5c(C)nn(C)c5C)c(Cl)ccc24)CCCN(Cc2cc(C(=O)O)c(C)o2)C3=O)cc(C)c1Cl [I-347, 5-((8-chloro-1-(3-(4-chloro-3,5-dimethylphenoxy)propyl)-1-oxo-7-(1,3,5-trimethyl-1H-pyrazol-4-yl)-4,5-dihydro-1H-[1,4]diazepino[1,2-a]indol-2(3H)-yl)methyl)-2-methylfuran-3-carboxylic acid]"
7,< 50,"Cc1cc(OCCCc2c3n(c4c(-c5c(C)nn(C)c5C)c(Cl)ccc24)CCN(c2cncc(C(=O)O)c2)C3=O)cc(C)c1Cl [I-198, 5-(7-chloro-10-(3-(4-chloro-3,5-dimethylphenoxy)propyl)-1-oxo-6-(1,3,5-trimethyl-1H-pyrazol-4-yl)-3,4-dihydropyrazino[1,2-a]indol-2(1H)-yl)nicotinic acid]"
8,< 50,"Cc1cc(OCCCc2c3n(c4c(-c5c(C)nn(C)c5C)c(Cl)ccc24)CCN(c2cc(C(=O)O)cc(N4CCOCC4)c2)C3=O)cc(C)c1Cl [I-213, 3-(7-chloro-10-(3-(4-chloro-3,5-dimethylphenoxy)propyl)-1-oxo-6-(1,3,5-trimethyl-1H-pyrazol-4-yl)-3,4-dihydropyrazino[1,2-a]indol-2(1H)-yl)-5-morpholinobenzoic acid]"
9,< 50,"Cc1cc(OCCCc2c3n(c4c(-c5c(C)nn(C)c5C)c(Cl)ccc24)[C@H](C)CN(c2cc(C(=O)O)c4ccn(C)c4c2)C3=O)cc(C)c1Cl [I-174, (R)-6-(7-chloro-10-(3-(4-chloro-3,5-dimethylphenoxy)propyl)-4-methyl-1-oxo-6-(1,3,5-trimethyl-1H-pyrazol-4-yl)-3,4-dihydropyrazino[1,2-a]indol-2(1H)-yl)-1-methyl-1H-indole-4-carboxylic acid]"
10,< 50,"Cc1cc(OCCCc2c3n(c4c(-c5c(C)nn(C)c5C)c(Cl)ccc24)[C@H](C)CN(Cc2ccc(C(=O)O)cn2)C3=O)cc(C)c1Cl [I-153, (R)-6-((7-chloro-10-(3-(4-chloro-3,5-dimethylphenoxy)propyl)-4-methyl-1-oxo-6-(1,3,5-trimethyl-1H-pyrazol-4-yl)-3,4-dihydropyrazino[1,2-a]indol-2(1H)-yl)methyl)nicotinic acid]"
11,< 50,"Cc1cc(OCCCc2c3n(c4c(-c5c(C)nn(C)c5C)c(Cl)ccc24)C[C@@H](C)N(Cc2cccc(C(=O)O)c2)C3=O)cc(C)c1Cl [I-121, (R)-3-((7-chloro-10-(3-(4-chloro-3,5-dimethylphenoxy)propyl)-3-methyl-1-oxo-6-(1,3,5-trimethyl-1H-pyrazol-4-yl)-3,4-dihydropyrazino[1,2-a]indol-2(1H)-yl)methyl)benzoic acid]"
12,< 50,"Cc1cc(OCCCc2c3n(c4c(-c5c(C)nn(C)c5C)c(Cl)ccc24)CCN(c2ccc(C(=O)O)c4ncccc24)C3=O)cc(C)c1Cl [I-161, 5-(7-chloro-10-(3-(4-chloro-3,5-dimethylphenoxy)propyl)-1-oxo-6-(1,3,5-trimethyl-1H-pyrazol-4-yl)-3,4-dihydropyrazino[1,2-a]indol-2(1H)-yl)quinoline-8-carboxylic acid]"
13,< 50,"Cc1cc(OCCCc2c3n(c4c(-c5c(C)nn(C)c5C)c(Cl)ccc24)C(C)[C@@H](C)N(Cc2cccc(C(=O)O)c2)C3=O)cc(C)c1Cl (stereo partly drawn) [I-145, 3-(((3R)-7-chloro-10-(3-(4-chloro-3,5-dimethylphenoxy)propyl)-3,4-dimethyl-1-oxo-6-(1,3,5-trimethyl-1H-pyrazol-4-yl)-3,4-dihydropyrazino[1,2-a]indol-2(1H)-yl)methyl)benzoic acid]"
14,< 50,"Cc1cc(OCCCc2c3n(c4c(-c5c(C)nn(C)c5C)c(Cl)ccc24)CCCN(c2cc(CN(C)C)cc(C(=O)O)c2)C3=O)cc(C)c1Cl [I-226, 3-(8-chloro-11-(3-(4-chloro-3,5-dimethylphenoxy)propyl)-1-oxo-7-(1,3,5-trimethyl-1H-pyrazol-4-yl)-4,5-dihydro-1H-[1,4]diazepino[1,2-a]indol-2(3H)-yl)-5-((dimethylamino)methyl)benzoic acid]"

# Same assay, conditions: Table 2; Ki bins given in μM; FITC-Bak or FITC-Bim peptide competition; Ki converted from IC50; read-out: Ki for Inhibition of Mcl-1
row,Structure (SMILES),Ki [nM]
1,"Cc1cc(OCCCc2c(C(=O)NCc3cc(C(=O)NCc4ccccc4)c(C)o3)[nH]c3c(-c4c(C)nn(C)c4C)cccc23)cc(C)c1Cl [I-275, N-((4-(benzylcarbamoyl)-5-methylfuran-2-yl)methyl)-3-(3-(4-chloro-3,5-dimethylphenoxy)propyl)-7-(1,3,5-trimethyl-1H-pyrazol-4-yl)-1H-indole-2-carboxamide]",1000 to 9990
